This is an account of results in PMC10218596 (International Journal of Molecular Sciences, 2023).

What all share (type): cell-based
The target of one assay is T1, h[α6R63C/α3]β4 (Homo sapiens, UniProt P30926+P32297+Q15825, R96C).
T1 construct: formed by splicing the N-terminal extracellular domain of the α6 subunit with the α3 subunit; human nAChR α3 subunit (CHRNA3); expressed in transfected cells; host or cells: Xenopus laevis oocytes injected with cRNA (plasmids from the University of Utah)
The settings on record: ACh on h[α6R63C/α3]β4.

Another assay concerns the target T2, h[α6I176V/α3]β4 (Homo sapiens, UniProt P30926+P32297+Q15825, I209V).
T2 construct: formed by splicing the N-terminal extracellular domain of the α6 subunit with the α3 subunit; fusion partner: remainder of the human α3 subunit (CHRNA3); expressed in transfected cells; host or cells: Xenopus laevis oocytes injected with cRNA
Put plainly: Electrophysiological assay, ACh concentration-response (Xenopus oocytes). The settings on record: ACh on h[α6I176V/α3]β4.

For a further assay, the target named is T3, h[α6M67T/α3]β4 (Homo sapiens, UniProt P30926+P32297+Q15825, M100T).
T3 construct: formed by splicing the N-terminal extracellular domain of the α6 subunit with the α3 subunit; fusion partner: remainder of the human α3 subunit (CHRNA3); expressed in transfected cells; host or cells: Xenopus laevis oocytes injected with cRNA
The settings on record: ACh on h[α6M67T/α3]β4.

A further assay concerns the target T4, h[α6V32L/α3]β4 (Homo sapiens, UniProt P30926+P32297+Q15825, V65L).
T4 construct: formed by splicing the N-terminal extracellular domain of the α6 subunit with the α3 subunit; human nAChR α3 subunit (CHRNA3); expressed in transfected cells; host or cells: Xenopus laevis oocytes injected with cRNA (plasmids from the University of Utah)
The settings on record: ACh on h[α6V32L/α3]β4.

In the next assay the target is T5, h[α6N110D/α3]β4 (Homo sapiens, UniProt P30926+P32297+Q15825, N143D).
T5 construct: formed by splicing the N-terminal extracellular domain of the α6 subunit with the α3 subunit; fusion partner: remainder of the human α3 subunit (CHRNA3); expressed in transfected cells; host or cells: Xenopus laevis oocytes injected with cRNA
Put plainly: Electrophysiological assay, ACh concentration-response (Xenopus oocytes). The conditions noted are these: ACh on h[α6N110D/α3]β4.

For the next assay, the target named is T6, h[α6Q14R/α3]β4 (Homo sapiens, UniProt P30926+P32297+Q15825, Q47R).
T6 construct: formed by splicing the N-terminal extracellular domain of the α6 subunit with the α3 subunit; human nAChR α3 subunit (CHRNA3); expressed in transfected cells; host or cells: Xenopus laevis oocytes injected with cRNA (plasmids from the University of Utah)
The settings on record: ACh on h[α6Q14R/α3]β4.

In the next assay the target is T7, h[α6K81N/α3]β4 (Homo sapiens, UniProt P30926+P32297+Q15825, K114N).
T7 construct: formed by splicing the N-terminal extracellular domain of the α6 subunit with the α3 subunit; fusion partner: remainder of the human α3 subunit (CHRNA3); expressed in transfected cells; host or cells: Xenopus laevis oocytes injected with cRNA
The settings on record: ACh on h[α6K81N/α3]β4.

For the next assay, the target named is T8, h[α6K7T/α3]β4 (Homo sapiens, UniProt P30926+P32297+Q15825, K40T).
T8 construct: formed by splicing the N-terminal extracellular domain of the α6 subunit with the α3 subunit; human nAChR α3 subunit (CHRNA3); expressed in transfected cells; host or cells: Xenopus laevis oocytes injected with cRNA (plasmids from the University of Utah)
Put plainly: Electrophysiological assay, ACh concentration-response (Xenopus oocytes). The settings on record: ACh on h[α6K7T/α3]β4.

The target in the next assay is T9, h[α6N58K/α3]β4 (Homo sapiens, UniProt P30926+P32297+Q15825, N91K).
T9 construct: formed by splicing the N-terminal extracellular domain of the α6 subunit with the α3 subunit; human nAChR α3 subunit (CHRNA3); expressed in transfected cells; host or cells: Xenopus laevis oocytes injected with cRNA (plasmids from the University of Utah)
Described as above. The settings on record: ACh on h[α6N58K/α3]β4.

In assay [1] the target is T10, h[α6V32L, K61R/α3]β4L107V,V115I (Homo sapiens, UniProt P30926+P32297+Q15825, K94R/L133V/V141I/V65L).
T10 construct: formed by splicing the N-terminal extracellular domain of the α6 subunit with the α3 subunit; fusion partner: remainder of the human α3 subunit (CHRNA3); expressed in transfected cells; host or cells: Xenopus laevis oocytes injected with cRNA
The settings on record: ACh on h[α6V32L.

Another assay has as its target T11, h[α6K61R/α3]β4 (Homo sapiens, UniProt P30926+P32297+Q15825, K94R).
T11 construct: formed by splicing the N-terminal extracellular domain of the α6 subunit with the α3 subunit; human nAChR α3 subunit (CHRNA3); expressed in transfected cells; host or cells: Xenopus laevis oocytes injected with cRNA (plasmids from the University of Utah)
Put plainly: Electrophysiological assay, ACh concentration-response (Xenopus oocytes). The conditions noted are these: ACh on h[α6K61R/α3]β4.

For another assay, the target named is T12, h[α6V32L, K61R/α3]β4 (Homo sapiens, UniProt P30926+P32297+Q15825, K94R/V65L).
T12 construct: formed by splicing the N-terminal extracellular domain of the α6 subunit with the α3 subunit; fusion partner: remainder of the human α3 subunit (CHRNA3); expressed in transfected cells; host or cells: Xenopus laevis oocytes injected with cRNA
The settings on record: ACh on h[α6V32L.

The next assay has as its target T13, h[α6S10A/α3]β4 (Homo sapiens, UniProt P30926+P32297+Q15825, S43A).
T13 construct: formed by splicing the N-terminal extracellular domain of the α6 subunit with the α3 subunit; human nAChR α3 subunit (CHRNA3); expressed in transfected cells; host or cells: Xenopus laevis oocytes injected with cRNA (plasmids from the University of Utah)
The conditions noted are these: ACh on h[α6S10A/α3]β4.

Another assay deals with T14, h[α6M112V/α3]β4 (Homo sapiens, UniProt P30926+P32297+Q15825, M145V).
T14 construct: formed by splicing the N-terminal extracellular domain of the α6 subunit with the α3 subunit; fusion partner: remainder of the human α3 subunit (CHRNA3); expressed in transfected cells; host or cells: Xenopus laevis oocytes injected with cRNA
The conditions noted are these: ACh on h[α6M112V/α3]β4.

Another assay deals with T15, h[α6R3Q/α3]β4 (Homo sapiens, UniProt P30926+P32297+Q15825, R36Q).
T15 construct: formed by splicing the N-terminal extracellular domain of the α6 subunit with the α3 subunit; human nAChR α3 subunit (CHRNA3); expressed in transfected cells; host or cells: Xenopus laevis oocytes injected with cRNA (plasmids from the University of Utah)
Put plainly: Electrophysiological assay, ACh concentration-response (Xenopus oocytes). The conditions noted are these: ACh on h[α6R3Q/α3]β4.

Each structure is given as a SMILES string.

T9 sequence (Q15825+P32297 fused with the stated changes): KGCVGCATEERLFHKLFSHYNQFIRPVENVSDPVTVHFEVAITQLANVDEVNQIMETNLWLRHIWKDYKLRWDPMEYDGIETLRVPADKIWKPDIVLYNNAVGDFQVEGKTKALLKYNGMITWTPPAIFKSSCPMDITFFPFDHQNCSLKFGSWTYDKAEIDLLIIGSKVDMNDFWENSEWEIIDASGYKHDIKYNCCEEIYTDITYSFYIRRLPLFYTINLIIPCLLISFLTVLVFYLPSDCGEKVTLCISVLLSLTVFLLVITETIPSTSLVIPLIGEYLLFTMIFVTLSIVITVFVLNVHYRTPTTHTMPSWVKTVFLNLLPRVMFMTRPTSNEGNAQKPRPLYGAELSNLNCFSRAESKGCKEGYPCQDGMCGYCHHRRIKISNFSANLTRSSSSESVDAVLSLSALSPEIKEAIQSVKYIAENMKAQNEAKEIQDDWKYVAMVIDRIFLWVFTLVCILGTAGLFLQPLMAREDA
T9 sequence (P30926 22-498): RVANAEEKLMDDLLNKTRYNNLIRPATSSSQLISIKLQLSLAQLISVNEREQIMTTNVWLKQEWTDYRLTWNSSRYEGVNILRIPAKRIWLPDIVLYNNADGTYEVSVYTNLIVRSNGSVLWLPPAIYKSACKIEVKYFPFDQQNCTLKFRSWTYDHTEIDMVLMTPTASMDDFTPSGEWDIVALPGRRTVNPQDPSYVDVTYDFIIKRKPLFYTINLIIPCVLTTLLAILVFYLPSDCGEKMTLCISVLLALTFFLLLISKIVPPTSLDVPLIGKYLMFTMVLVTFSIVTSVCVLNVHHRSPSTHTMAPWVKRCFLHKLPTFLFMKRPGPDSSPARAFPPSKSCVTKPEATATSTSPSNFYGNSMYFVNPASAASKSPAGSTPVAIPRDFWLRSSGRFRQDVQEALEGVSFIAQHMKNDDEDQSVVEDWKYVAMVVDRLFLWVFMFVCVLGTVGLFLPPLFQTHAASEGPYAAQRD
T6 sequence (Q15825+P32297 fused with the stated changes): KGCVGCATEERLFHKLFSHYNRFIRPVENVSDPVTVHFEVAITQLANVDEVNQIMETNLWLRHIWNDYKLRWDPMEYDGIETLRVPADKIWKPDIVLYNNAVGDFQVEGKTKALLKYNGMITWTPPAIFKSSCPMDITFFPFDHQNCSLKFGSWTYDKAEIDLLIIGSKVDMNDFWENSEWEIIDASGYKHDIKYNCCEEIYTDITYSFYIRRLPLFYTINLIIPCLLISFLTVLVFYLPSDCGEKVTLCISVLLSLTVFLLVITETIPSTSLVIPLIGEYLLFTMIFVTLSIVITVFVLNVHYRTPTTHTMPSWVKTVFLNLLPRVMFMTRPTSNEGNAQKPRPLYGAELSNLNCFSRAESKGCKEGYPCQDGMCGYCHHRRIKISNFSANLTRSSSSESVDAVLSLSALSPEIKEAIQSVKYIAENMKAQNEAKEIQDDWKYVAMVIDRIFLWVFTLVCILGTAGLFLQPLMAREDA
T6 sequence (P30926 22-498): as the sequence (P30926 22-498) above
T5 sequence (Q15825+P32297 fused with the stated changes): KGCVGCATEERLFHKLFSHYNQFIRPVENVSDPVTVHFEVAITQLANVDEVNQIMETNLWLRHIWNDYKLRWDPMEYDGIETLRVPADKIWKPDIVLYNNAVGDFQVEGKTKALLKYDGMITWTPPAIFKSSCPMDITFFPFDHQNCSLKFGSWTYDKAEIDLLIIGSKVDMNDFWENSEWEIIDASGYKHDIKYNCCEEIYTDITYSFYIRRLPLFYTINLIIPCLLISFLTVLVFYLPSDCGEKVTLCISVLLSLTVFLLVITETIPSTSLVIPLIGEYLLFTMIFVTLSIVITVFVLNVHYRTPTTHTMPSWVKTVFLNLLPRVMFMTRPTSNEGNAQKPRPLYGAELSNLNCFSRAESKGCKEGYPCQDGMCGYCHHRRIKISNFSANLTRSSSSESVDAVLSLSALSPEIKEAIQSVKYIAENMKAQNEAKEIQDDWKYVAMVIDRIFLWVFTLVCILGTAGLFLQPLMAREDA
T5 sequence (P30926 22-498): as the sequence (P30926 22-498) above
T11 sequence (Q15825+P32297 fused with the stated changes): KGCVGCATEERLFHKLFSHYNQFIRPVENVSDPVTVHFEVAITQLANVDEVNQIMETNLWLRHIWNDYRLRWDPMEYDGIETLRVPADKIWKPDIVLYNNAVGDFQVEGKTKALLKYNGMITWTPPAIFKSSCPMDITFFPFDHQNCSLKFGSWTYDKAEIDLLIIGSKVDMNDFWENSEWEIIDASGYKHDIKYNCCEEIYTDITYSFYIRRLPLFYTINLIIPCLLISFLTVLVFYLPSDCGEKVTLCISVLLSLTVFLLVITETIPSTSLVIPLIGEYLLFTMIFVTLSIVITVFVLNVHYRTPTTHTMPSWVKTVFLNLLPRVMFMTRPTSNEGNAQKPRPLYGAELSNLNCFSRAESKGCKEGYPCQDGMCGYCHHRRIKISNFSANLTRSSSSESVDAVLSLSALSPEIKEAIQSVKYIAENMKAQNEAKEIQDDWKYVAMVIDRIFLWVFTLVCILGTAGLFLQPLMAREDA
T11 sequence (P30926 22-498): as the sequence (P30926 22-498) above
T8 sequence (Q15825+P32297 fused with the stated changes): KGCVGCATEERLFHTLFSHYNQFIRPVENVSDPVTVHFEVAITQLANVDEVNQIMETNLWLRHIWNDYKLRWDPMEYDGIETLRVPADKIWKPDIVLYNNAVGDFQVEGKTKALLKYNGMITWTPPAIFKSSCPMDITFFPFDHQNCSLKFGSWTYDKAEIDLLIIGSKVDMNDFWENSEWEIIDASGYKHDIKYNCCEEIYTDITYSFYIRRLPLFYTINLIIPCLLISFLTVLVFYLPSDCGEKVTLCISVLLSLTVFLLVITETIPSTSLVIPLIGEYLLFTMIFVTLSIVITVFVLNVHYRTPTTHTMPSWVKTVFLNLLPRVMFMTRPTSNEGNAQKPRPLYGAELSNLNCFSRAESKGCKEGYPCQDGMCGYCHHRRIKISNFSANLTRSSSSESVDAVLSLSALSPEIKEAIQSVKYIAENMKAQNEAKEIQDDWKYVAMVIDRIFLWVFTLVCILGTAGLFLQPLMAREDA
T8 sequence (P30926 22-498): as the sequence (P30926 22-498) above

In the case of `CC(=O)OCC[N+](C)(C)C` [ACh, acetylcholine chloride], the “Hill Slope” value at h[α6R63C/α3]β4 is listed as 1.5 (1.2–1.8); on h[α6I176V/α3]β4, 1.7 (1.4–2.1); at h[α6M67T/α3]β4, 1.4 (0.9–2.2); at h[α6V32L/α3]β4, 1.5 (1.3–1.9); at h[α6N110D/α3]β4 it was 1.2 (0.9–1.6); on h[α6Q14R/α3]β4, 1.4 (1.2–1.6). Further, the “Hill Slope” value on h[α6K81N/α3]β4 was 1.4 (1.3–1.7); at h[α6K7T/α3]β4, 1.5 (1.1–1.9); at h[α6N58K/α3]β4, 1.4 (1.2–1.7); in [1], 1.2 (1.0–1.5); at h[α6K61R/α3]β4, 1.4 (1.2–1.7); at h[α6V32L, K61R/α3]β4, 1.2 (1.1–1.3). Also, the “Hill Slope” value at h[α6S10A/α3]β4 is given as 1.6 (1.2–2.3); at h[α6M112V/α3]β4 it was 1.4 (1.1–1.8); at h[α6R3Q/α3]β4, 1.4 (1.2–1.8).
